Read-outs that look alike come from different tables or passages of the source.
Columns and labels:
LIMK2 = LIMK2 (Homo sapiens (Human), UniProt P53671); assay: Lanthascreen Eu binding assay (TR-FRET), inhibition of LIMK2
ROCK1 = ROCK1 (Homo sapiens (Human), UniProt Q13464); assay: Z'Lyte assay, ROCK1 inhibition at a single concentration; assay type: biochemical
[1] = tested on: cofilin phosphorylation, MPNST88-14 cells; assay: Cofilin phosphorylation by Western Blot in MPNST88-14 cells; assay type: cell-based
ROCK2 = ROCK2 (Homo sapiens (Human), UniProt O75116); assay: Z'Lyte assay, ROCK2 inhibition at a single concentration; assay type: biochemical
[2] = tested on: cofilin phosphorylation, HeLa cells; assay: Cofilin phosphorylation by Western Blot (anti-phospho-Ser3-cofilin) in HeLa cells; assay type: cell-based; settings: for inhibition at 25 µM: Homo sapiens; for inhibition at 25 µM / % inhibition Cofilin phosphorylation HeLa cells treated 2 h with 25 uM of inhibitor: 2 h
LIMK1 = LIMK1 (Homo sapiens (Human), UniProt P53667); assay: Lanthascreen Eu binding assay (TR-FRET), inhibition of LIMK1
[3] = tested on: cofilin phosphorylation, MPNST90-8 cells; assay: Cofilin phosphorylation by Western Blot in MPNST90-8 cells; assay type: cell-based; settings: for inhibition at 25 µM: read-out: % inhibition Cofilin phosphorylation MPNST90-8 cells treated 2 h with 25 uM of inhibitor, MPNST90-8 cells, 25 uM
[4] = read-out: % inhibition (ROCK1) 1 uM
[5] = 2 h, read-out: % inhibition Cofilin phosphorylation MPNST88-14 cells treated 2 h with 25 uM of inhibitor
[6] = read-out: % inhibition (ROCK2) 1 uM
[7] = HeLa, read-out: % inhibition Cofilin phosphorylation HeLa cells treated 2 h with 25 uM of inhibitor
[8] = read-out: % inhibition (ROCK1) 1 uM, 1 uM
[9] = read-out: % inhibition Cofilin phosphorylation MPNST88-14 cells treated 2 h with 25 uM of inhibitor, MPNST88-14 cells, 25 uM
[10] = read-out: % inhibition (ROCK2) 1 uM, 1 uM
[11] = HeLa, read-out: % inhibition of cofilin phosphorylation in HeLa cells (treatment 2 h, at 25 μM), Table 2, normalized to the control condition DMSO
[12] = read-out: % inhibition Cofilin phosphorylation HeLa cells treated 2 h with 25 uM of inhibitor, HeLa cells, 25 uM
[13] = Table 2, normalized to the control condition DMSO
[14] = HeLa, read-out: % inhibition of cofilin phosphorylation in HeLa cells (treatment 2 h, at 25 μM)

LIMK1, sequence (P53667 whole entry): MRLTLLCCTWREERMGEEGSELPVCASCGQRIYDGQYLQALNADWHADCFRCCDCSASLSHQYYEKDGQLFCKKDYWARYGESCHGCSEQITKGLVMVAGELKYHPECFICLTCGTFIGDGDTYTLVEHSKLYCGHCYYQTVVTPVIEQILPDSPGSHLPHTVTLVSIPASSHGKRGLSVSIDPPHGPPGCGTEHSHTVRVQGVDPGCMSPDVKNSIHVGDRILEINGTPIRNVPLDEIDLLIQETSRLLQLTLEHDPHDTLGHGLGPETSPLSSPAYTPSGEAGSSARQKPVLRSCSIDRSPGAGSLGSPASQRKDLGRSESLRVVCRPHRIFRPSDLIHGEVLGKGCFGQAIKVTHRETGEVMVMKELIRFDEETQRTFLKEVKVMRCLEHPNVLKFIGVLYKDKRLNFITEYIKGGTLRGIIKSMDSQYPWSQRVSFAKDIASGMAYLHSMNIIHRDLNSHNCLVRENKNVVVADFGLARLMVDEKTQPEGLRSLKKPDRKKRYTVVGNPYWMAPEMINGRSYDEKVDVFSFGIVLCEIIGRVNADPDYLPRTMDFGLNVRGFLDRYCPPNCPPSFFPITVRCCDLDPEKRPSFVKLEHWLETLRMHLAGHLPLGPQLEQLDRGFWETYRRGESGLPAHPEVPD
ROCK2, sequence (O75116 whole entry): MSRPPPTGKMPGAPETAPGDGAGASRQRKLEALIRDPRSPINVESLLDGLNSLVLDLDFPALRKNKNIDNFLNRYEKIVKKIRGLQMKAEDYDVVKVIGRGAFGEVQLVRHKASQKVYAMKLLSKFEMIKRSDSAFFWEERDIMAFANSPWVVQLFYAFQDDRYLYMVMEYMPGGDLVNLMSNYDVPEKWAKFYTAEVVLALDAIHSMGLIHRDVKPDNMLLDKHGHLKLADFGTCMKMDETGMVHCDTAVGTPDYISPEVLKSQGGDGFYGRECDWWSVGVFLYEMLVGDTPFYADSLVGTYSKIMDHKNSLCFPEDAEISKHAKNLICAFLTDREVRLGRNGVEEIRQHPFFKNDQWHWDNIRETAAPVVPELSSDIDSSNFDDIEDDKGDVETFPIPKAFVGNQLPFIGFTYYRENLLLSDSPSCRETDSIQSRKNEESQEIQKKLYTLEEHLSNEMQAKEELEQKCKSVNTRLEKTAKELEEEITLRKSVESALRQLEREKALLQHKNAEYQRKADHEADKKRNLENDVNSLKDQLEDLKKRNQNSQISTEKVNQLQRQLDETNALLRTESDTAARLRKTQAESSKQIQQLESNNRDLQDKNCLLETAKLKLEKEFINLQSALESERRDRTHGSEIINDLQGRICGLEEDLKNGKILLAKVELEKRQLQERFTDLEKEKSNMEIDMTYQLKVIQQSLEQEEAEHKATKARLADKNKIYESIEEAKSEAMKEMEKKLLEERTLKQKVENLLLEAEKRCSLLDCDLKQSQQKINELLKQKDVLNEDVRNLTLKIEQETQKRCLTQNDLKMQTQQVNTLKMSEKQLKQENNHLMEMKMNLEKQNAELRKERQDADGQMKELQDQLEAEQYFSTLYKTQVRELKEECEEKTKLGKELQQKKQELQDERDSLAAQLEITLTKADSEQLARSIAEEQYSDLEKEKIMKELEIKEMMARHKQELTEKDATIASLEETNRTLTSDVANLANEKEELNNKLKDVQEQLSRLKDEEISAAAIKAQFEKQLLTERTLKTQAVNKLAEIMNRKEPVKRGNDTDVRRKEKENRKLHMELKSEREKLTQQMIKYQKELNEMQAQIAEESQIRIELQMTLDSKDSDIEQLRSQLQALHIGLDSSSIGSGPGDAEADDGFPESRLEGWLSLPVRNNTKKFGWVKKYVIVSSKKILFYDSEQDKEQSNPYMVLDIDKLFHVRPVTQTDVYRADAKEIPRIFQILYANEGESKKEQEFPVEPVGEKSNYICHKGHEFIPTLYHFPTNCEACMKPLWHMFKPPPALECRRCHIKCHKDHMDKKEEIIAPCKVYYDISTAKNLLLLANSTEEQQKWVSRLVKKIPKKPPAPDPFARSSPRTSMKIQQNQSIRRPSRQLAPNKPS
ROCK1, sequence (Q13464 whole entry): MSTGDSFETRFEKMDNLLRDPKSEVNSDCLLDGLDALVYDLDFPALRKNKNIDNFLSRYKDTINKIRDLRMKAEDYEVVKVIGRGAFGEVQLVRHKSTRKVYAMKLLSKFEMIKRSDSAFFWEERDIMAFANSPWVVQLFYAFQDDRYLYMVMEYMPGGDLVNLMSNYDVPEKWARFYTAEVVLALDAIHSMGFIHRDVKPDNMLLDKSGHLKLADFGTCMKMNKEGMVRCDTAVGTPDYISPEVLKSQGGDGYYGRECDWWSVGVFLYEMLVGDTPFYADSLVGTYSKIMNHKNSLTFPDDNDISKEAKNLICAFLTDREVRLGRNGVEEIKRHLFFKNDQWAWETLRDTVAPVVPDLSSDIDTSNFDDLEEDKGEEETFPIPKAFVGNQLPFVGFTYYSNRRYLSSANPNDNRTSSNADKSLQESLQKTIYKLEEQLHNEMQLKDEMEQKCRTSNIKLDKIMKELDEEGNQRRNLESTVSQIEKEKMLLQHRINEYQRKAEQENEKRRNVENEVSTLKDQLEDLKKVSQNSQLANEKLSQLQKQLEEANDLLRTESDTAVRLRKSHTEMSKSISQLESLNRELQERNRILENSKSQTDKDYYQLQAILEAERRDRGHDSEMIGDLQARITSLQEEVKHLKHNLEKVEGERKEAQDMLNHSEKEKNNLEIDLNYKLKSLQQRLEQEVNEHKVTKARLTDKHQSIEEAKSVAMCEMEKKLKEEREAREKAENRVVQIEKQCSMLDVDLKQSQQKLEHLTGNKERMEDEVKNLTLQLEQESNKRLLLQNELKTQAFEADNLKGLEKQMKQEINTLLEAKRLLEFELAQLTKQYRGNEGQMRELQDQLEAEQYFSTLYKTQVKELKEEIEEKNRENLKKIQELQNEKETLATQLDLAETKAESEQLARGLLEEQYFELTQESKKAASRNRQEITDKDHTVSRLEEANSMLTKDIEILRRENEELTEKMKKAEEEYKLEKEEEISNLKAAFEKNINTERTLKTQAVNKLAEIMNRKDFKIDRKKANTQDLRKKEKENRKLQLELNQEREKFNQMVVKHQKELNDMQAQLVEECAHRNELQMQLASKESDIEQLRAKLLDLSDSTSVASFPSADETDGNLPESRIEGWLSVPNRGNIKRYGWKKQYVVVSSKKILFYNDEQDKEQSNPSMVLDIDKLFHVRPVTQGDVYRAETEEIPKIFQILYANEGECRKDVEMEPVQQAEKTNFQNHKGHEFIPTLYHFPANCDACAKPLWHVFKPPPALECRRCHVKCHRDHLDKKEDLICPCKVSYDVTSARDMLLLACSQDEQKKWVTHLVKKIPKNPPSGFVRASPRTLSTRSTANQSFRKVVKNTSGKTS
LIMK2, sequence (P53671 whole entry): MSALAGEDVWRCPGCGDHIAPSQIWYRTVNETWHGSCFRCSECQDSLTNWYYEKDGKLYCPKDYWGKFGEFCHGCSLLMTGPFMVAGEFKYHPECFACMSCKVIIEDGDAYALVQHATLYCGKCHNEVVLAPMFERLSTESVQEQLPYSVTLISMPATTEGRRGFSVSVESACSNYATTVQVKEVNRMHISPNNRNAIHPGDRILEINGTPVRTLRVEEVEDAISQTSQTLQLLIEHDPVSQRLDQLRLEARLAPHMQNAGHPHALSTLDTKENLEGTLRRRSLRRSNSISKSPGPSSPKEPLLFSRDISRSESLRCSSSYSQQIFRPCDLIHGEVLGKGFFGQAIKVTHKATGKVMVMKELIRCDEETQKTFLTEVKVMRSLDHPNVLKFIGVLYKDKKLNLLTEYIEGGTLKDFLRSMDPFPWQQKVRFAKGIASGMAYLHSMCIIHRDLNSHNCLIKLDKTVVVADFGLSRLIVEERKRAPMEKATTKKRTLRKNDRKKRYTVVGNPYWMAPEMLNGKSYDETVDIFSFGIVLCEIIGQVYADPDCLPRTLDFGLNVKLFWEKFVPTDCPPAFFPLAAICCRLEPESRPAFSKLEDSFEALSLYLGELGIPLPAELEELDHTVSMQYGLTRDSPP

| SMILES | inhibition at 1 µM (ROCK1; [4]) [%] | inhibition at 1 µM (ROCK2; [6]) [%] | Ki (LIMK2; Lanthascreen Eu binding assay) [µM] | inhibition at 1 µM (ROCK1; [8]) [%] | inhibition at 25 µM [1, 9] [%] | inhibition at 1 µM (ROCK2; [10]) [%] | inhibition at 25 µM [2, 11] [%] | inhibition at 25 µM [2, 12] [%] | Ki (LIMK1; Lanthascreen Eu binding assay) [µM] | further results |
| --- | --- | --- | --- | --- | --- | --- | --- | --- | --- | --- |
| O=C(Nc1cccc(Br)c1)N1CC=C(c2ncnc3[nH]c4c(c23)CSCC4)CC1 [Compound 156, N-(3-Bromophenyl)-4-(5,7,8,9-tetrahydrothiopyrano [3′,4′:4,5]pyrrolo[2,3-d]pyrimidin-4-yl)-3,6-dihydropyridine-1(2H)-carboxamide] | 3 | 15 |  |  |  |  |  |  |  | Ki (LIMK2): 0.0315 µM; inhibition at 25 µM [1, 5]: 61.6%; inhibition at 25 µM [2, 7]: 68.2%; Ki (LIMK1): 0.0414 µM |
| Cc1c[nH]c2ncnc(C3=CC(C)N(C(=O)Nc4cccc(F)c4)C(C)C3)c12 (stereo not shown) [Compound 57, N-(3-Fluorophenyl)-2,6-dimethyl-4-(5-methyl-7H-pyrrolo[2,3-d]pyrimidin-4-yl)-3,6-dihydropyridine-1(2H)-carboxamide] |  |  | 0.103 | 59 | 81 | 36 | 90.3 | 90.3 | 0.0466 | inhibition at 25 µM [3]: 93.3% |
| O=C(Nc1cccc(Br)c1)N1CC=C(c2ncnc3[nH]c4c(c23)COCC4)CC1 [Compound 159, N-(3-Bromophenyl)-4-(5,7,8,9-tetrahydropyrano[3′,4′:4,5]pyrrolo[2,3-d]pyrimidin-4-yl)-3,6-dihydropyridine-1(2H)-carboxamide] | 11 | 3 |  |  |  |  |  |  |  | Ki (LIMK2): 0.0515 µM; inhibition at 25 µM [1, 5]: 64.3%; inhibition at 25 µM [2, 7]: 70.3%; Ki (LIMK1): 0.051 µM |
| O=C(Nc1cccc(F)c1)N1CC=C(c2ncnc3[nH]c4c(c23)COCC4)CC1 [Compound 157, N-(3-Fluorophenyl)-4-(5,7,8,9-tetrahydropyrano[3′,4′:4,5]pyrrolo[2,3-d]pyrimidin-4-yl)-3,6-dihydropyridine-1(2H)-carboxamide] |  |  | 0.319 | 7 | 56.5 | -1 | 79.5 | 79.5 | 0.172 |  |
| O=C(Nc1cccc(Cl)c1)N1CC=C(c2ncnc3[nH]c4c(c23)COCC4)CC1 [Compound 158, N-(3-Chlorophenyl)-4-(5,7,8,9-tetrahydropyrano[3′,4′:4,5]pyrrolo[2,3-d]pyrimidin-4-yl)-3,6-dihydropyridine-1(2H)-carboxamide] | 2 | 1 | 0.093 |  | 59.8 |  |  | 65.3 | 0.0656 |  |
| O=C(Nc1cccc(F)c1)N1CC=C(c2ncnc3[nH]c4c(c23)CSCC4)CC1 [Compound 154, N-(3-Fluorophenyl)-4-(5,7,8,9-tetrahydrothiopyrano[3′,4′:4,5]pyrrolo[2,3-d]pyrimidin-4-yl)-3,6-dihydropyridine-1(2H)-carboxamide] |  |  | 0.0786 | 5 | 57.7 | 7 |  | 66.9 | 0.0527 |  |
| CN(C)C(=O)Oc1cccc(NC(=O)N2CC=C(c3ncnc4[nH]c5c(c34)CCC5)CC2)c1 [Compound 122, 3-(4-(5,6,7,8-Tetrahydrocyclopenta[4,5]pyrrolo[2,3-d]pyrimidin-4-yl)-1,2,3,6-tetrahydropyridine-1-carboxamido)phenyl dimethyl carbamate] |  |  | 0.00402 |  |  |  |  |  | 0.00711 | % inhibition (ROCK1) 1 uM (ROCK1): 4%; % inhibition (ROCK2) 1 uM (ROCK2): 14%; % inhibition Cofilin phosphorylation HeLa cells treated 2 h with 25 uM of inhibitor ([2]; HeLa cells, 25 uM): 81.3%; % inhibition of cofilin phosphorylation in HeLa cells (treatment 2 h, at 25 μM) [2, 13]: 81.3%; % inhibition Cofilin phosphorylation MPNST90-8 cells treated 2 h with 25 uM of inhibitor [3]: 65.6% |
| Cc1c[nH]c2ncnc(C3=CC(C)N(C(=O)Nc4cccc(Oc5ccccc5)c4)C(C)C3)c12 (stereo not shown) [Compound 60, 2,6-Dimethyl-4-(5-methyl-7H-pyrrolo[2,3-d]pyrimidin-4-yl)-N-(3-phenoxyphenyl)-3,6-dihydro pyridine-1(2H)-carboxamide] |  |  |  |  |  |  |  |  |  | % inhibition (ROCK1) 1 uM (ROCK1): 11%; % inhibition Cofilin phosphorylation MPNST88-14 cells treated 2 h with 25 uM of inhibitor ([1]; MPNST88-14 cells, 25 uM): 74.5%; % inhibition (ROCK2) 1 uM (ROCK2): 7%; % inhibition Cofilin phosphorylation HeLa cells treated 2 h with 25 uM of inhibitor ([2]; HeLa cells, 25 uM): 94.2%; % inhibition of cofilin phosphorylation in HeLa cells (treatment 2 h, at 25 μM) [2, 13]: 94.2%; % inhibition Cofilin phosphorylation MPNST90-8 cells treated 2 h with 25 uM of inhibitor [3]: 81.1% |
| O=C(Nc1cccc(Oc2ccccc2)c1)N1CC=C(c2ncnc3[nH]c4c(c23)CCC4)CC1 [Compound 125, N-(3-Phenoxyphenyl)-4-(5,6,7,8-tetrahydrocyclopenta[4,5]pyrrolo[2,3-d]pyrimidin-4-yl)-3,6-dihydropyridine-1(2H)-carboxamide] |  |  | 0.0285 | 10 | 80.8 | -2 | 81.4 | 81.4 | 0.029 | inhibition at 25 µM [3]: 76.1% |
| O=C(Nc1cccc(Cl)c1)N1CC=C(c2ncnc3[nH]c4c(c23)CCCC4)CC1 [Compound 114, N-(3-Chlorophenyl)-4-(6,7,8,9-tetrahydro-5H-pyrimido[4,5-b]indol-4-yl)-3,6-dihydropyridine-1(2H)-carboxamide] | 4 | 8 | 0.0255 |  | 74.7 |  | 89.3 | 89.3 | 0.00998 |  |
| O=C(Nc1cccc(Cl)c1)N1CC=C(c2ncnc3[nH]c4c(c23)CSCC4)CC1 [Compound 155, N-(3-Chlorophenyl)-4-(5,7,8,9-tetrahydrothiopyrano [3′,4′:4,5]pyrrolo[2,3-d]pyrimidin-4-yl)-3,6-dihydropyridine-1(2H)-carboxamide] | 10 | 14 | 0.0942 |  | 57.7 |  |  | 72.8 | 0.0941 |  |
| COc1cccc(NC(=O)N2CC=C(c3ncnc4[nH]c5c(c34)CCC5)CC2)c1 [Compound 121, N-(3-Methoxyphenyl)-4-(5,6,7,8-tetrahydrocyclopenta[4,5]pyrrolo[2,3-d]pyrimidin-4-yl)-3,6-dihydropyridine-1(2H)-carboxamide] |  |  | 0.0252 | 3 |  | 18 |  | 64.5 | 0.0061 |  |
| Cc1c[nH]c2ncnc(C3=CC(C)N(C(=O)Nc4cccc(Br)c4)C(C)C3)c12 (stereo not shown) [Compound 59, N-(3-Bromophenyl)-2,6-dimethyl-4-(5-methyl-7H-pyrrolo[2,3-d]pyrimidin-4-yl)-3,6-dihydropyridine-1(2H)-carboxamide] | 34 | 40 |  |  |  |  |  |  |  | inhibition at 25 µM [1, 5]: 74.7%; inhibition at 25 µM [2, 7]: 93.6%; inhibition at 25 µM [2, 14]: 93.6% |
| CCc1cccc(NC(=O)N2CC=C(c3ncnc4[nH]c5c(c34)CCC5)CC2)c1 [Compound 129, N-(3-Ethylphenyl)-4-(7,9,11-triazatricyclo[6.4.0.02,6]dodeca-1(8),2(6),9,11-tetraen-12-yl)-3,6-dihydropyridine-1(2H)-carboxamide] |  |  | 0.0549 | 18 |  | 11 | 84.5 | 84.5 | 0.0166 |  |
| Cc1c[nH]c2ncnc(C3=CC(C)N(C(=O)Nc4cccc(Cl)c4)C(C)C3)c12 (stereo not shown) [Compound 58, N-(3-Chlorophenyl)-2,6-dimethyl-4-(5-methyl-7H-pyrrolo[2,3-d]pyrimidin-4-yl)-3,6-dihydropyridine-1(2H)-carboxamide] | 34 | 32 |  |  |  |  |  |  |  | inhibition at 25 µM [1, 5]: 77.3%; inhibition at 25 µM [2, 7]: 91.4%; inhibition at 25 µM [2, 14]: 91.4% |
